Laboratory results reported in article PMC4213378, “Pharmacokinetics and Efficacy of the Spleen Tyrosine Kinase Inhibitor R406 after Ocular Delivery for Retinoblastoma” (Pharmaceutical Research, 2014).
≈ marks a conversion by molar mass, not a printed value.

Experiments:
retinoblastoma cells = test system: retinoblastoma cells; parameters: method as in PMID 22237022; conditions: cited from earlier work
[1] = test system: human orthotopic retinoblastoma xenografts; parameters: method as in PMID 22237022; conditions: cited from earlier work
[2] = Intraocular and plasma R406 after topical administration (eye drops); format: in vivo, mouse; conditions: mice; for R406 levels in the eye at 0.5 h post dosing / R406 levels in the eye at 1 h post dosing / drug in plasma samples: single topical dose; for R406 levels in the eye at 0.5 h post dosing / R406 levels in the eye at 1 h post dosing: drops, 2 μL of 25 mM suspension in 5% HPβCD; for drug in plasma samples: data not shown
Protocol: (§1) For oral delivery of R788, the target dose of 25 mg/kg R788 was administered by oral gavage as a 4 mM solution in 0.01 N citrate buffer, pH 6 ([9]). For subconjunctival administration, R788 was prepared at a concentration of 4 mM in 2% PEG-800 and filtered through a 0.22 μm filter prior to use (see Table S1). R788 was also administered subconjunctivally as a suspension at a concentration of 25 mM in 10% 2-hydroxylpropyl-β-cyclodextrin (HPβCD, Sigma-Aldrich). For subconjunctival administration, R406 phenylsulfonate salt was administered at a concentration of 800–900 μM as a cosolvent solution in a formulation of 5% Cremaphor-eL, 0.5% ethanol, 0.2% Tween 80 and 94.3% PBS, filtered through a 0.22 μm filter prior to use (see Table S2). R406 phenylsulfonate salt was also administered subconjunctivally at a dose of 31.4 mM solution in DMSO. R406 free base was administered subconjunctivally at a concentration of 6.5 mM as a 25% castor oil (Sigma-Aldrich) emulsion. This emulsion was prepared by mixing castor oil: ethanol (1:1) solution of R406 (approx. 35 mM), in vacuo evaporation of the ethanol, and centrifugation to remove any excess R406, then emulsifying the R406 oil phase in an aqueous phase comprised of Cremaphor-eL, Tween 80 and PBS (final composition of the emulsion: 25% castor oil, 5% Cremaphor-eL, 0.2% Tween-80, 69.8% PBS) by probe sonication. For intravitreal injection, R788 solution was prepared by filtering a 0.12 mM (120 μM) solution of R788 in saline through a 0.22 μm filter. […] For topical delivery, 25–30 mM suspensions were prepared in 5% HPβCD. R406 or R788 concentration in all formulations was determined by UPLC prior to study (in cases where formulation was filtered before administration, concentration was determined post-filtering) Table I.
(§2) For the systemic delivery study R788 was administered as a single bolus dose (25 mg/kg, 10 mL/kg volume) by oral gavage. For the subconjunctival administration study R788 or R406 (10 µL of formulation) was injected into the subconjunctival space of an anesthetized mouse using a Hamilton microliter syringe (Hamilton company, Reno NV). For the intravitreal administration study, R788 (5 μL of […] in saline) was administered to each eye via direct injection. To perform the intravitreal injection, mice were anesthetized, a small incision between the sclera and the cornea was created with a […] needle, and the R788 was injected into the vitreous using a Hamilton microliter syringe. For the topical administration study, R406 (2 μL of 25–30 mM suspension) was applied as a drop to the surface of each eye of an anesthetized mouse.
(§3) At serial time points (0.5, 1, 2, 4, and 8 h post-injection, n = 3 for each time point), blood was collected by terminal cardiac puncture after isoflurane anesthesia. Whole-blood samples were centrifuged immediately at 10,000×g for 5 min at 4°C to separate plasma. Once the cardiac puncture and blood collection was completed, the animal was perfused with 10 mL of saline and euthanized by cervical dislocation. Eyes were removed, rinsed in PBS, gently patted dry, then rinsed and dried again. Eyes were dissected and vitreous was collected. Plasma and vitreous samples were put on dry ice immediately after collection and stored at −80°C until analysis. For quantitative analysis methods and assay validation methods and results, see Supplementary Information.
To evaluate the topical route for R406 delivery, we tested the intraocular concentration after a single topical dose of R406 free base or an R406 […] salt.

[3] = Maximum solubility in PBS or saline; format: physicochemical
[4] = Crashing upon dilution of DMSO stock in PBS; format: physicochemical
Source text: Supplement 11095_2014_1399_MOESM1_ESM.docx, table 14: Table S14. R406 phenylsulfonate salt and free base crashing upon dilution of DMSO stock in PBS | column: Measured Concentration

[5] = Vitreous pharmacokinetics after oral or subconjunctival administration; format: in vivo, mouse; conditions: local (subconjunctival), castor oil emulsion 6.5 mM, 65 nmol per eye, mice
Protocol: as §1, §2, §3
(§4) Plasma and vitreous concentration time data were analyzed using non-compartmental analysis in WinNonlin 6.2 (Pharsight, Mountain View, CA), providing PK parameters including Cmax (maximum observed concentration), Tmax (time to reach maximum observed concentration), AUC (area under the concentration time curve) and MRT (mean residence time). AUC and AUMC (area under the concentration time first moment curve) values were estimated with the linear trapezoidal method, with parameters calculated using mean concentration values at each time point. […]

[6] = Plasma pharmacokinetics after oral or subconjunctival administration; format: in vivo, mouse; conditions: local (subconjunctival), castor oil emulsion 6.5 mM, 65 nmol per eye; mice
Protocol: as §1, §2, §3, §4

[7] = Concentration and stability of R406 in castor oil and castor oil emulsion; format: physicochemical
Protocol: as §1
An emulsion of 30% castor oil, 5% Cremaphor, 4% T80, 61% PBS was prepared and samples were stored at 4 °C and room temperature (25 °C). Samples were diluted and OD600 for each dilution was measured in triplicate on the day of emulsion preparation (storage time = 0 days) and after 6 days of storage. OD600 was measured using a black Costar clear bottom plate and a Spectramax plate reader.
For storage stability in emulsion, n =4.

[8] = Bioconversion of R788 to R406 in mouse vitreous; format: in vitro ADME; conditions: extracted mouse vitreous, 37°C, initial 25 μM R788, within 2 h
Protocol: Conversion of R788 to R406 was examined in freshly harvested murine vitreous, 2 U/mL bovine alkaline phosphatase in PBS (positive control), or plain PBS (no enzyme, negative control) at 37°C using a modified version of previously described phosphate prodrug conversion protocols ([9], [12]). Alkaline phosphatase (ALP) from bovine intestinal mucosa was obtained from Invitrogen and was reconstituted and diluted according to the manufacturer’s instructions. Vitreous was harvested from a mixed population of mice, pooled, and kept on ice for 1 - 2 h. The incubation media were pre-warmed to 37°C before the reaction was initiated by addition of 1 mM of R788 in saline (6 μL of R788 in saline into 234 μL of incubation media in a 1.5 mL Eppendorf tube). R788 was diluted into the incubation media at a 1:40 ratio (volume:volume) to mimic the dilution encountered during intravitreal injection in humans (typically 100 μL injection volume into 4–5 mL of human vitreous volume ([13], [14]). Initial estimated concentration of R788 was 25 μM. At the desired time points (0, 5, 10, 20, 30, 45, 60, and 120 min) an aliquot of 25 μl was collected from each incubation vial and transferred to a 1.5 mL Eppendorf tube, containing 25 μl of acetonitrile to terminate the reaction. 3 samples were tested per time point. Samples were stored at −80°C until quantification.

[9] = Vitreous and plasma R406 after intravitreal injection of R788; format: in vivo, mouse; conditions: intravitreal injection of R788 in saline, 5 μL per eye of 120 μM; mice
Protocol: For oral delivery of R788, the target dose of 25 mg/kg R788 was administered by oral gavage as a 4 mM solution in 0.01 N citrate buffer, pH 6 ([9]). For subconjunctival administration, R788 was prepared at a concentration of 4 mM in 2% PEG-800 and filtered through a 0.22 μm filter prior to use (see Table S1). R788 was also administered subconjunctivally as a suspension at a concentration of 25 mM in 10% 2-hydroxylpropyl-β-cyclodextrin (HPβCD, Sigma-Aldrich). For subconjunctival administration, R406 phenylsulfonate salt was administered at a concentration of 800–900 μM as a cosolvent solution in a formulation of 5% Cremaphor-eL, 0.5% ethanol, 0.2% Tween 80 and 94.3% PBS, filtered through a 0.22 μm filter prior to use (see Table S2). R406 phenylsulfonate salt was also administered subconjunctivally at a dose of 31.4 mM solution in DMSO. […] R406 or R788 concentration in all formulations was determined by UPLC prior to study (in cases where formulation was filtered before administration, concentration was determined post-filtering) Table I. […]
At serial time points (0.5, 1, 2, 4, and 8 h post-injection, n = 3 for each time point), blood was collected by terminal cardiac puncture after isoflurane anesthesia. […] For quantitative analysis methods and assay validation methods and results, see Supplementary Information.

[10] = Co-solvent solution formulation solubility matrix; format: physicochemical; conditions: read-out: R788 Solubility
[11] = parameters: method as in PMID 21515735; conditions: previous work; cited from earlier work
[12] = parameters: method as in PMID 21515735; conditions: subconjunctival administration; previous work; cited from earlier work

SMILES: COc1ccc(-c2cc3nccn3c(Nc3ncccc3C(N)=O)n2)cc1OC [BAY-61-3606]
- induction of caspase-mediated cell death of retinoblastoma cells in vitro (retinoblastoma cells): can induce caspase-mediated cell death
- blocking proliferation of human orthotopic retinoblastoma xenografts in vivo [1]: efficacious

SMILES: COc1cc(Nc2ncc(F)c(Nc3ccc4c(n3)NC(=O)C(C)(C)O4)n2)cc(OC)c1OC [R406 free base]
- R406 levels in the eye at 0.5 h post dosing [2]: 0.1 ± 0.06 µM
- R406 levels in the eye at 1 h post dosing [2]: 0.1 ± 0.1 µM
- drug in plasma samples [2]: No detectable drug
- solubility in PBS ([3]; PBS): insoluble (below the limit of quantitation)
- Measured Concentration ([4]; DMSO stock diluted 1 in 10 in PBS prior to filtration (theoretical 1.11 mM)): 965 µM
- Measured Concentration ([4]; DMSO stock diluted 1 in 10 in PBS, 0.22 micron filtered): 7 µM
- Measured Concentration ([4]; DMSO stock diluted 1 in 20 in PBS, 0.22 micron filtered): 6 µM
- Measured Concentration ([4]; DMSO stock, printed 'diluted 1 in 10 in PBS prior to filtration' (second such line, theoretical 557 µM)): 510 µM
- Cmax [5]: 169 ± 35.9 nM
- Vitreous AUClast [5]: 0.43 µM·h
- Vitreous Dose normalized AUC [5]: 3.3 nM∙h/nmol
- Vitreous MRT0-4h [5]: 2.19 h
- Vitreous Tlast [5]: 4 h
- Vitreous Tmax [5]: 0.5 h
- Vitreous MRT0-4h ([5]; listed as R406 base): ≥ 2 h
- Cmax [6]: 119 nM
- Plasma AUClast [6]: 0.119 µM·h
- Plasma Dose normalized AUC [6]: 0.9 nM∙h/nmol
- Plasma Tlast [6]: 2 h
- Plasma Tmax [6]: 0.5 h
- time stable in castor oil ([7]; room temperature): at least 6 days
- average concentration remaining, % of the initial concentration ([7]; stored in castor oil at room temperature, after 6 days, n=3): 113.3%

SMILES: CCCCCCCCCCCCCCCC(=O)O.COc1cc(Nc2ncc(F)c(Nc3ccc4c(n3)NC(=O)C(C)(C)O4)n2)cc(OC)c1OC [R406 palmitate salt]
- R406 levels in the eye at 0.5 h post dosing [2]: 0.3 ± 0.3 µM
- R406 levels in the eye at 1 h post dosing [2]: 0.3 ± 0.2 µM
- drug in plasma samples [2]: No detectable drug
- vitreous concentration of R406 ([2]; topical 40 mM R406 palmitate 5% cyclodextrin suspension, 1-4 hourly doses, sustained for 1.5 h after each application): 1 to 2 µM
- Cmax ([2]; topical delivery in cyclodextrin drops, sustainable via repeated dosing, read-out: vitreous Cmax / intraocular concentration): > 1000 nM

SMILES: COc1cc(Nc2ncc(F)c(Nc3ccc4c(n3)N(COP(=O)(O)O)C(=O)C(C)(C)O4)n2)cc(OC)c1OC [R788]
- conversion of R788 to R406 [8]: 100%
- solubility ([3]; PBS, read-out: maximum solubility in PBS): 1400 µM (≈ 813 µg/mL)
- solubility ([3]; saline, read-out: maximum solubility in saline): 1200 to 1400 µM (≈ 697 to 813 µg/mL)
- R406 levels in plasma samples [9]: BLOQ
- solubility ([10]; Trial 2: 2% PEG-8000, 98% PBS): 3560 µM (≈ 2070 µg/mL)
- solubility ([10]; aqueous buffer, Trial 3: 0.5% EtOH, 99.5% PBS): 1010 µM (≈ 586 µg/mL)
- solubility ([10]; aqueous buffer, Trial 4: 3% Glycerin, 97% PBS): 1130 µM (≈ 656 µg/mL)
- solubility ([10]; aqueous buffer, Trial 9: 100% PBS): 1240 µM (≈ 720 µg/mL)
- solubility ([10]; aqueous with cosolvent or surfactant or cyclodextrin, Trial 1: 0.1% Tyloxapol, 99.9% PBS): 1230 µM (≈ 714 µg/mL)
- solubility ([10]; aqueous with cosolvent or surfactant or cyclodextrin, Trial 5: 5% Cremaphor-eL, 95% PBS): 1430 µM (≈ 830 µg/mL)
- solubility ([10]; aqueous with cosolvent or surfactant or cyclodextrin, Trial 6: 10% PPG, 90% PBS): 1130 µM (≈ 656 µg/mL)
- solubility ([10]; aqueous with cosolvent or surfactant or cyclodextrin, Trial 7: 15% pPPG, 85% PBS): 1530 µM (≈ 888 µg/mL)
- solubility ([10]; aqueous with cosolvent or surfactant or cyclodextrin, Trial 8: 4% Tween-80, 96% PBS): 1710 µM (≈ 993 µg/mL)
- solubility ([10]; aqueous with cosolvent or surfactant or cyclodextrin, Trial 10: 5% Cremaphor-eL, 4% Tween-80, 91% PBS): 1510 µM (≈ 877 µg/mL)
- solubility ([10]; aqueous with cosolvent or surfactant or cyclodextrin, Trial 11: 15% pPPG, 4% Tween-80, 81% PBS): 1840 µM (≈ 1070 µg/mL)
- solubility ([10]; aqueous with cosolvent or surfactant or cyclodextrin, Trial 12: 5% Cremaphor-eL, 15% pPPG, 80% PBS): 2150 µM (≈ 1250 µg/mL)
- solubility ([10]; aqueous with cosolvent or surfactant or cyclodextrin, Trial 13: 5% Cremaphor-eL, 15% pPPG, 4% Tween-80, 76% PBS): 2640 µM (≈ 1530 µg/mL)
- solubility ([10]; aqueous with cosolvent or surfactant or cyclodextrin, Trial 14: 2% PEG-8000, 5% Cremaphor-eL, 15% pPPG, 4% Tween-80, 74% PBS): 3470 µM (≈ 2010 µg/mL)

SMILES: COc1ccc(C2=N[C@@H](c3ccc(Cl)cc3)[C@@H](c3ccc(Cl)cc3)N2C(=O)N2CCNC(=O)C2)c(OC(C)C)c1 [nutlin-3a]
- water solubility [11]: approximately 40 μM
- AUC ratio of vitreous to plasma [12]: 28.6
